{"source": "paper PMC9401600", "about": "(Chemmedchem, 2022)", "key": {"[1]": {"biological_target": "T1, EHMT1 (GLP) (Homo sapiens, UniProt Q9H9B1)", "T1 construct": "purchased", "T1 sequence (Q9H9B1 1-1298)": "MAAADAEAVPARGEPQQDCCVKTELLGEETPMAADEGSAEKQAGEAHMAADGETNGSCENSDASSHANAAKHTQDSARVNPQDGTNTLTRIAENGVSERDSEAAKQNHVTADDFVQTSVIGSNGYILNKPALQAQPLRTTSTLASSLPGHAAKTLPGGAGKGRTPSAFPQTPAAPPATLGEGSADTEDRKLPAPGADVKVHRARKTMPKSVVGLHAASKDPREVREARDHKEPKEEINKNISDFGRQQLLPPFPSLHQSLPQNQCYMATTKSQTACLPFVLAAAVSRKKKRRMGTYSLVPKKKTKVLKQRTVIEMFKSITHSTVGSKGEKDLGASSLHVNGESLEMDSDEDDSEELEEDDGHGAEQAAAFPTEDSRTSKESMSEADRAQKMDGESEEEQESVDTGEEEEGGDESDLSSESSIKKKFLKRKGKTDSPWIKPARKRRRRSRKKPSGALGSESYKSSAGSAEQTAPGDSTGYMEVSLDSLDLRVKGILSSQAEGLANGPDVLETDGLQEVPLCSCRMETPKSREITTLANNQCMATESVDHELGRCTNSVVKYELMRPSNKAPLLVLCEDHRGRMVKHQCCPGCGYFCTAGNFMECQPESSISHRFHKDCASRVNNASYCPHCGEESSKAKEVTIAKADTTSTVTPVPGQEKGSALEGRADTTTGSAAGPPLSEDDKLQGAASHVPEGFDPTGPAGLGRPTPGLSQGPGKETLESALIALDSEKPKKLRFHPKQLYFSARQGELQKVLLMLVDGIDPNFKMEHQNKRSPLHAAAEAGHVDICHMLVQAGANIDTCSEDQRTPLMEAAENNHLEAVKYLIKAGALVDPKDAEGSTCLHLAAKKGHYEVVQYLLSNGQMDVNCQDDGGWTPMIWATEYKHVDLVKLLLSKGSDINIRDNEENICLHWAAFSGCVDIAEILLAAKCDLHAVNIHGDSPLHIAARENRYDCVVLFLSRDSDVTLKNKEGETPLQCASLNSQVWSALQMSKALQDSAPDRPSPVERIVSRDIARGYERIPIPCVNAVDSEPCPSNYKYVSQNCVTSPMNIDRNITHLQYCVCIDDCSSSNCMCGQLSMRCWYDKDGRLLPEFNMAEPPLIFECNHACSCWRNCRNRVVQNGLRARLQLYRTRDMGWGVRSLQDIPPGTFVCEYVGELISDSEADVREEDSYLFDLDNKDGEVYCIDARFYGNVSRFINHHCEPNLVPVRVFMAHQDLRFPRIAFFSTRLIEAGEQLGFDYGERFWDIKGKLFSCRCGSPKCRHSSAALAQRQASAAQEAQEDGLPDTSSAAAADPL", "assay": "EHMT1 (GLP) chemiluminescent assay", "assay_type": "biochemical", "conditions": "0.01 μM to 10 μM", "procedure": "Last, but not least, further characterization of the best candidates was performed assessing their selectivity. Thus, we tested them against EHMT1 (G9a‐like protein, GLP). […] However, they presented a very low percentage, and furthermore this trend was not observed at high doses.\nThe assay was carried out using EHMT1 (GLP) Chemiluminescent Assay kit. Compounds were added on a 96‐well plate precoated with histone substrate supplied by kit. 30 μL of master mixture SAM were added and the reaction was initiated adding 20 μL of diluted EHMT1 (GLP) enzyme. The reaction was incubated at room temperature (RT) for 1 hour. The plate was washed three times with 200 μl TBST buffer. 100 μL of Blocking buffer were added to every well and the plate was incubated at RT for 10 minutes with shaking. Supernatant was removed and 100 μl of Primary antibody were added per well. The plate was incubated at RT for 1 hour with slow shaking. The plate was washed three times with 200 μl TBST buffer. 100 μL of Blocking buffer were added to every well and the plate was incubated at RT for 10 minutes with shaking. 100 μl of Secondary HRP‐labeled antibody were added per well and the plate was incubated at RT for 30 minutes with slow shaking. The plate was washed three times with 200 μl TBST buffer. Finally, 100 μl of substrate mix were added and the luminescence was measurement with integration time of 1 second in Perkin Elmer EnSpire Multimode plate reader."}, "[2]": {"tested_on": "C. elegans strain CL2006", "assay": "Locomotion assay (motor index)", "assay_type": "in vivo, Caenorhabditis elegans", "conditions": "CL2006 worms, 0.001-1 μM, chronic treatment, compared with UNC0638", "procedure": "One of the best‐characterized transgenic AD strains in C. elegans is the CL2006 strain, which contains the Punc‐54::Aβ1–42 transgene, showing a progressive adult‐onset paralysis. Then, to establish a dose‐response profile, the pharmacological impact of G9a inhibition was evaluated in a locomotion assay with this C. elegans strain. We performed a motility assay where animals were placed in the center of a seeded plate and allowed to explore the environment freely. […] N2 (WT), and CL2006 strain were treated with dimethyl sulfoxide (DMSO) 1 %, used as a vehicle, which should not cause a relevant locomotor defective phenotype. […] The motor index for each condition was calculated using the motor performance of Bristol (N2) (WT, 100 %) and the transgenic AD strain (CL2006, 0 %) animals as reference.\nLocomotion assay of G9a inhibitors was assessed to obtain dose‐response profile, evaluating the impact of the pharmacology treatment in motor dysfunction presented by the transgenic strains CL2006. Nematodes were synchronized by alkaline hypochlorite treatment, and drug assay was performed as described above, except for the OP50 bacteria OD595 adjusted to 0.9, and the duration of the treatment was 5 days. N2 (WT), and the transgenic strain CL2006 were treated in liquid media for 4 days at 20 °C and 180 rpm, starting at the L1 stage. On day 5 of age, worms were transferred from the 96‐well plates onto an unseeded NGM plate for 45 minutes before starting the trial, allowing the plates to dry and worms. Locomotion assays were performed in 30 mm NGM plates, in which the whole surface of the plate was covered by OP50. 5 to 10 adult nematodes were placed in the center of a circle (with 1 cm of diameter) in the seeded 30 mm NGM plates. After 1 min, the number of animals remaining inside the circle was scored as a locomotor defect. Motor behavior assays were run in triplicates (n=3), with a total of at least 100 animals tested per compound concentration. Motor index establishes a score where treated animals showing the same motor defect as CL2006 have an index of 0 %. […] All the results shown in the figures are calculated using the following formula: Motorindex(%)=(LDCL2006vehicle-LDCL2006drug)/(LDCL2006vehicle-LDWTvehicle)×100 LD=locomotiondefective"}, "[3]": {"assay": "PAMPA‐BBB assay", "assay_type": "in vitro ADME", "conditions": "for predictive penetration in the CNS: PAMPA‐BBB classification; for Papp: pig, PAMPA‐BBB, PBS:EtOH (70 : 30), read-out: Permeability (Pe) experimental value", "protocol": "To evaluate the brain penetration of the different compounds, a parallel artificial membrane permeation assay for BBB was used, following the method described by Di et al..[33] The in vitro Pe of fourteen commercial drugs through lipid extract of porcine brain membrane together with the test compounds were determined. Commercial drugs and assayed compounds were tested using a mixture of PBS:EtOH (70 : 30)."}}, "data": [{"smiles": "CCN1C[C@H](NC(=O)c2cc3cc(Cl)ccc3[nH]2)[C@@H](OC)C1", "note": "[F, 5‐chloro‐N‐((3S,4S)‐1‐ethyl‐4‐methoxypyrrolidin‐3‐yl)‐1H‐indole‐2‐carboxamide]", "values": [{"measurement": "activity against EHMT1 (in words)", "setting": "[1]", "result": "slight activity against EHMT1 at low doses"}, {"measurement": "motor index dose‐response profile (in words)", "setting": "[2]", "result": "ameliorating the paralysis presented by CL2006"}, {"measurement": "predictive penetration in the CNS", "setting": "[3]", "result": "CNS+ (compounds of high BBB permeation (CNS+): Pe (10^−6 cm ⋅ s^−1) >5.14)"}, {"measurement": "Papp", "setting": "[3]", "result": "10.9 ± 0.4", "unit": "×10⁻⁶ cm/s"}]}, {"smiles": "Cc1cc(N2CCN(Cc3cc(CN4CCCC4)cs3)CC2)nc(N)n1", "note": "[E]", "values": [{"measurement": "activity against EHMT1 (in words)", "setting": "[1]", "result": "did not inhibit EHMT1"}, {"measurement": "motor index dose‐response profile (in words)", "setting": "[2]", "result": "ameliorating the paralysis presented by CL2006"}, {"measurement": "predictive penetration in the CNS", "setting": "[3]", "result": "CNS+/‐"}, {"measurement": "Papp", "setting": "[3]", "result": "2.2 ± 0.1", "unit": "×10⁻⁶ cm/s"}]}, {"smiles": "Cc1cc(CNC(=O)C(c2ccc(F)cc2)N2CCCCC2)cnc1C", "note": "(stereo not drawn) [H]", "values": [{"measurement": "activity against EHMT1 (in words)", "setting": "[1]", "result": "slight activity against EHMT1 at low doses"}, {"measurement": "motor index dose‐response profile (in words)", "setting": "[2]", "result": "ameliorating the paralysis presented by CL2006"}, {"measurement": "predictive penetration in the CNS", "setting": "[3]", "result": "CNS+ (compounds of high BBB permeation (CNS+): Pe (10^−6 cm ⋅ s^−1) >5.14)"}, {"measurement": "Papp", "setting": "[3]", "result": "17.4 ± 2.4", "unit": "×10⁻⁶ cm/s"}]}]}
